# Laboratory results taken from the Kinase Knowledgebase extract (Sharma et al. 2016).
# Molecular target: EGFR (UniProt P00533)
# Sequence (P00533 whole entry, looked up): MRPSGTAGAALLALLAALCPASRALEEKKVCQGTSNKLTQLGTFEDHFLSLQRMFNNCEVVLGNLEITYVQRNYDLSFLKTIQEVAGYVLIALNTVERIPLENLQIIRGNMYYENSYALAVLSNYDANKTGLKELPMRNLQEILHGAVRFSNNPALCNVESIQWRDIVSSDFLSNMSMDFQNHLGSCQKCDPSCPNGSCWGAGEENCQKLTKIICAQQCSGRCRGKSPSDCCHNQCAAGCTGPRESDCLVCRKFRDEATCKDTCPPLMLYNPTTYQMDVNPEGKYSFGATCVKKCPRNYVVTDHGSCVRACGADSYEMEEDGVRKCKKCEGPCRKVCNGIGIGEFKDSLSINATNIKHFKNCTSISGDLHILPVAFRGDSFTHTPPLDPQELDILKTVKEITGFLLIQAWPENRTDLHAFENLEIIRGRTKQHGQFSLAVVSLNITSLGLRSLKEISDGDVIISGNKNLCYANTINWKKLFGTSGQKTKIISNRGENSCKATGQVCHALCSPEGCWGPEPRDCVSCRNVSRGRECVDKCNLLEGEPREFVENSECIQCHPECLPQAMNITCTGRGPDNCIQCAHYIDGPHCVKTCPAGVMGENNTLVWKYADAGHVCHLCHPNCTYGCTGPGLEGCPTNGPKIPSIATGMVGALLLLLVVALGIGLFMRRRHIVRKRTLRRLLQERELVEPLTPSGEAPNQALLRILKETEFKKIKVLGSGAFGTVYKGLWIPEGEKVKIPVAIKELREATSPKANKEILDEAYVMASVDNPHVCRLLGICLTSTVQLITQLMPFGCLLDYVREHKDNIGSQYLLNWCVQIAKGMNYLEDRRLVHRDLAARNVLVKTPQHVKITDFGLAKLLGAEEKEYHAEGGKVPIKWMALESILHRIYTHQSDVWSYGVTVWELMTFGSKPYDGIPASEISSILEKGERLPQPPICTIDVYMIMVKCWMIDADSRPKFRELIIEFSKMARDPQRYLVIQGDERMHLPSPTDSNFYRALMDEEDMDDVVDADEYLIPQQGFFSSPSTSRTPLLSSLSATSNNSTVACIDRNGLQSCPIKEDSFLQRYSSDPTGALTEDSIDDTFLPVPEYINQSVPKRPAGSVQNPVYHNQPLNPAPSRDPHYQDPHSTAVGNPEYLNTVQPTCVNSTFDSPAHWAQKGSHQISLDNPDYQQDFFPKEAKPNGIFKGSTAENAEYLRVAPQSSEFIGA
row,Compound,IC50 [µM]
1,Cc1ccc2ncnc(Nc3ccccc3)c2c1,> 50
2,Cc1ccc2ncnc(Nc3cccc(C(=O)O)c3)c2c1,> 50
3,Cc1ccc2ncnc(Nc3ccc(C)c(C)c3)c2c1,> 45
4,Cc1ccc2ncnc(Nc3cccc(Br)c3)c2c1,0.33
5,Cc1ccc2ncnc(Nc3ccccc3C)c2c1,> 50
6,COc1cc2nc(N3CCN(C)CC3)nc(Nc3cccc(Cl)c3)c2cc1OC,3.4
7,COc1cc2nc(Nc3ccc(C)cc3)nc(Nc3ccc(C)cc3)c2cc1OC,3.4
8,Cc1ccc2ncnc(Nc3cccc(C(F)(F)F)c3)c2c1,0.86
9,COc1cc2ncnc(Nc3ccccc3)c2cc1OC,> 50
10,Clc1cccc(Nc2ncnc3ccccc23)c1,0.205
11,Cc1ccc2ncnc(Nc3ccc(O)cc3)c2c1,> 50
12,Cc1ccc2ncnc(Nc3ccc(C#N)cc3)c2c1,> 50
13,COc1cc2ncnc(Nc3cccc(I)c3)c2cc1OC,0.0017
14,COc1cccc(Nc2ncnc3cc(OC)c(OC)cc23)c1,1
15,Cc1ccc2ncnc(Nc3cccc(C(N)=O)c3)c2c1,> 50
16,COc1cc2c(Nc3cccc(Cl)c3)ncnc2c(OC)c1OC,> 50
17,COc1cc2nc(Cl)nc(Nc3ccc(C)cc3)c2cc1OC,4.9
18,Cc1ccc(Nc2ncnc3ccc(C)cc23)cc1,> 50

# Other lines, results leading:
row,IC50 [µM],Compound
1,10,COc1ccc(Nc2ncnc3ccc(C)cc23)cc1
2,> 50,Cc1ccc2ncnc(Nc3ccccc3Cl)c2c1
3,20,COc1cc2nc(Cl)nc(Nc3cccc(Cl)c3)c2cc1OC
4,0.024,COc1cc2ncnc(Nc3cc(Cl)cc(Cl)c3)c2cc1OC
5,> 50,Clc1ccccc1Nc1ncnc2ccccc12
6,> 50,Cc1cccc2c(Nc3cccc(Cl)c3)ncnc12
7,0.037,Cc1ccc2ncnc(Nc3cccc(Cl)c3)c2c1
8,21,Cc1ccc2ncnc(Nc3ccc4c(c3)OCO4)c2c1
9,14,Cc1ccc2ncnc(Nc3ccc(Br)cc3)c2c1
10,> 50,Cc1ccc2ncnc(Nc3ccccc3O)c2c1
